Test results from ChEMBL document CHEMBL5584210, “Design, synthesis and antitubercular assessment of 1, 2, 3-triazole incorporated thiazolylcarboxylate derivatives” (Bioorg Med Chem Lett, 2024).
In brackets after ≈: the same amount, converted by molar mass.

What was measured:
[1] = test system: Mycobacterium tuberculosis; test: Antimycobacterial activity against Mycobacterium tuberculosis H37Rv by alamar blue assay; assay type: functional
[2] = Cytotoxicity against mouse RAW264.7 cells assessed as inhibition of cell growth at 25 ug/ml incubated for 48 hrs by MTT assay relative to control; assay type: toxicity, cell-based; settings: at 25 µg/mL

CCCc1cc(-c2nc(C)c(C(=O)OCc3cn(-c4cccc(Cl)c4)nn3)s2)ccn1
MIC [1]: 12.5 µg/mL (≈ 27.5 µM)

CCCc1cc(-c2nc(C)c(C(=O)OCc3cn(-c4ccc(CC)cc4)nn3)s2)ccn1
MIC [1]: 1.56 µg/mL (≈ 3.49 µM)
inhibition at 48 h, 25 ug/ml [2]: 27.2%

CCc1cc(-c2nc(C)c(C(=O)OCc3cn(-c4ccccc4)nn3)s2)ccn1
MIC [1]: 25 µg/mL (≈ 61.7 µM)

CCc1cc(-c2nc(C)c(C(=O)OCc3cn(-c4ccc(OC)cc4)nn3)s2)ccn1
MIC [1]: 12.5 µg/mL (≈ 28.7 µM)

CCCc1cc(-c2nc(C)c(C(=O)OCc3cn(-c4ccccc4F)nn3)s2)ccn1
MIC [1]: 25 µg/mL (≈ 57.1 µM)

CCc1cc(-c2nc(C)c(C(=O)OCc3cn(-c4c(C)cc(C)cc4C)nn3)s2)ccn1
MIC [1]: 25 µg/mL (≈ 55.9 µM)

CCCc1cc(-c2nc(C)c(C(=O)OCc3cn(-c4cccc(OC)c4)nn3)s2)ccn1
MIC [1]: 6.25 µg/mL (≈ 13.9 µM)
inhibition at 48 h, 25 ug/ml [2]: 25.7%

CCc1cc(-c2nc(C)c(C(=O)OCc3cn(-c4ccccc4C)nn3)s2)ccn1
MIC [1]: 12.5 µg/mL (≈ 29.8 µM)

O=C(O)c1cn(C2CC2)c2cc(N3CCNCC3)c(F)cc2c1=O [CIPROFLOXACIN]
MIC [1]: 1.56 µg/mL (≈ 4.71 µM)

CCc1cc(-c2nc(C)c(C(=O)OCc3cn(-c4ccc(C)cc4C)nn3)s2)ccn1
MIC [1]: 6.25 µg/mL (≈ 14.4 µM)
inhibition at 48 h, 25 ug/ml [2]: 21.9%

CCc1cc(-c2nc(C)c(C(=O)OCc3cn(-c4ccc(C)c([N+](=O)[O-])c4)nn3)s2)ccn1
MIC [1]: 12.5 µg/mL (≈ 26.9 µM)

CCc1cc(-c2nc(C)c(C(=O)OCc3cn(-c4ccccc4OC)nn3)s2)ccn1
MIC [1]: > 25 µg/mL

CCCc1cc(-c2nc(C)c(C(=O)OCc3cn(-c4ccccc4)nn3)s2)ccn1
MIC [1]: 12.5 µg/mL (≈ 29.8 µM)

CCCc1cc(-c2nc(C)c(C(=O)OCc3cn(-c4ccc(C)cc4)nn3)s2)ccn1
MIC [1]: > 25 µg/mL

CCCc1cc(-c2nc(C)c(C(=O)OCc3cn(-c4ccc(Br)cc4)nn3)s2)ccn1
MIC [1]: 25 µg/mL (≈ 50.2 µM)

CCc1cc(-c2nc(C)c(C(=O)OCc3cn(-c4cccc([N+](=O)[O-])c4)nn3)s2)ccn1
MIC [1]: 12.5 µg/mL (≈ 27.7 µM)

CCCc1cc(-c2nc(C)c(C(=O)OCc3cn(-c4cccc([N+](=O)[O-])c4)nn3)s2)ccn1
MIC [1]: > 25 µg/mL

CCc1cc(-c2nc(C)c(C(=O)OCc3cn(-c4cccc(OC)c4)nn3)s2)ccn1
MIC [1]: 6.25 µg/mL (≈ 14.4 µM)
inhibition at 48 h, 25 ug/ml [2]: 26%

CCc1cc(-c2nc(C)c(C(=O)OCc3cn(-c4ccc(C)cc4)nn3)s2)ccn1
MIC [1]: 25 µg/mL (≈ 59.6 µM)

CCc1cc(-c2nc(C)c(C(=O)OCc3cn(-c4ccccc4F)nn3)s2)ccn1
MIC [1]: 12.5 µg/mL (≈ 29.5 µM)

CCc1cc(-c2nc(C)c(C(=O)OCc3cn(-c4ccccc4Cl)nn3)s2)ccn1
MIC [1]: 25 µg/mL (≈ 56.8 µM)

CCc1cc(-c2nc(C)c(C(=O)OCc3cn(-c4cccc(Cl)c4)nn3)s2)ccn1
MIC [1]: 25 µg/mL (≈ 56.8 µM)

CCCc1cc(-c2nc(C)c(C(=O)OCc3cn(-c4ccc(Cl)cc4)nn3)s2)ccn1
MIC [1]: > 25 µg/mL

CC[C@@H](CO)NCCN[C@@H](CC)CO [ETHAMBUTOL]
MIC [1]: 3.12 µg/mL (≈ 15.3 µM)

CCc1cc(-c2nc(C)c(C(=O)OCc3cn(-c4cccc(C)c4)nn3)s2)ccn1
MIC [1]: 6.25 µg/mL (≈ 14.9 µM)
inhibition at 48 h, 25 ug/ml [2]: 30.1%

CCc1ccc(-n2cc(COC(=O)c3sc(-c4ccnc(CC)c4)nc3C)nn2)cc1
MIC [1]: 3.12 µg/mL (≈ 7.2 µM)
inhibition at 48 h, 25 ug/ml [2]: 29.2%

CCCc1cc(-c2nc(C)c(C(=O)OCc3cn(-c4ccc(OC)cc4)nn3)s2)ccn1
MIC [1]: > 25 µg/mL

CCc1cc(-c2nc(C)c(C(=O)OCc3cn(-c4ccc(Cl)cc4)nn3)s2)ccn1
MIC [1]: 25 µg/mL (≈ 56.8 µM)

CCc1cc(-c2nc(C)c(C(=O)OCc3cn(-c4ccc(Br)cc4)nn3)s2)ccn1
MIC [1]: > 25 µg/mL
